Measurements taken from patent US20090306133A1, “New Acetyl Coenzyme A Carboxylase (ACC) Inhibitors And Uses In Treatments Of Obesity And Diabetes Mellitus - 087” (ASTRAZENECA AB, priority 2007, published 2009).
pIC50: −log10 of the molar value.

Legend:
[1] = target: Human recombinant Acetyl-CoA Carboxylase 2 (ACC2) (Homo sapiens, UniProt O00763); test: Assay X: ACC2 inhibition, inorganic phosphate (malachite green); type: biochemical; details: Assay X: 37° C., 1.5 h, 5 min pre-incubation
In short: (§1)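 Human recombinant enzyme pre-incubated 5 min with compound before substrate addition; reaction run 1.5 h, then inorganic phosphate detected by malachite green absorbance at 660 nm. Ten concentrations tested in triplicate; apparent IC50 from four-parameter curve fit.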

[2] = target: Human recombinant Acetyl-CoA Carboxylase 1 (ACC1) (Homo sapiens, UniProt Q13085); test: Assay X: ACC1 inhibition, inorganic phosphate (malachite green); type: biochemical; details: Assay X: 37° C., 1.5 h, 5 min pre-incubation
In short: as §1

Chain of Human recombinant Acetyl-CoA Carboxylase 2 (ACC2) (O00763 whole entry): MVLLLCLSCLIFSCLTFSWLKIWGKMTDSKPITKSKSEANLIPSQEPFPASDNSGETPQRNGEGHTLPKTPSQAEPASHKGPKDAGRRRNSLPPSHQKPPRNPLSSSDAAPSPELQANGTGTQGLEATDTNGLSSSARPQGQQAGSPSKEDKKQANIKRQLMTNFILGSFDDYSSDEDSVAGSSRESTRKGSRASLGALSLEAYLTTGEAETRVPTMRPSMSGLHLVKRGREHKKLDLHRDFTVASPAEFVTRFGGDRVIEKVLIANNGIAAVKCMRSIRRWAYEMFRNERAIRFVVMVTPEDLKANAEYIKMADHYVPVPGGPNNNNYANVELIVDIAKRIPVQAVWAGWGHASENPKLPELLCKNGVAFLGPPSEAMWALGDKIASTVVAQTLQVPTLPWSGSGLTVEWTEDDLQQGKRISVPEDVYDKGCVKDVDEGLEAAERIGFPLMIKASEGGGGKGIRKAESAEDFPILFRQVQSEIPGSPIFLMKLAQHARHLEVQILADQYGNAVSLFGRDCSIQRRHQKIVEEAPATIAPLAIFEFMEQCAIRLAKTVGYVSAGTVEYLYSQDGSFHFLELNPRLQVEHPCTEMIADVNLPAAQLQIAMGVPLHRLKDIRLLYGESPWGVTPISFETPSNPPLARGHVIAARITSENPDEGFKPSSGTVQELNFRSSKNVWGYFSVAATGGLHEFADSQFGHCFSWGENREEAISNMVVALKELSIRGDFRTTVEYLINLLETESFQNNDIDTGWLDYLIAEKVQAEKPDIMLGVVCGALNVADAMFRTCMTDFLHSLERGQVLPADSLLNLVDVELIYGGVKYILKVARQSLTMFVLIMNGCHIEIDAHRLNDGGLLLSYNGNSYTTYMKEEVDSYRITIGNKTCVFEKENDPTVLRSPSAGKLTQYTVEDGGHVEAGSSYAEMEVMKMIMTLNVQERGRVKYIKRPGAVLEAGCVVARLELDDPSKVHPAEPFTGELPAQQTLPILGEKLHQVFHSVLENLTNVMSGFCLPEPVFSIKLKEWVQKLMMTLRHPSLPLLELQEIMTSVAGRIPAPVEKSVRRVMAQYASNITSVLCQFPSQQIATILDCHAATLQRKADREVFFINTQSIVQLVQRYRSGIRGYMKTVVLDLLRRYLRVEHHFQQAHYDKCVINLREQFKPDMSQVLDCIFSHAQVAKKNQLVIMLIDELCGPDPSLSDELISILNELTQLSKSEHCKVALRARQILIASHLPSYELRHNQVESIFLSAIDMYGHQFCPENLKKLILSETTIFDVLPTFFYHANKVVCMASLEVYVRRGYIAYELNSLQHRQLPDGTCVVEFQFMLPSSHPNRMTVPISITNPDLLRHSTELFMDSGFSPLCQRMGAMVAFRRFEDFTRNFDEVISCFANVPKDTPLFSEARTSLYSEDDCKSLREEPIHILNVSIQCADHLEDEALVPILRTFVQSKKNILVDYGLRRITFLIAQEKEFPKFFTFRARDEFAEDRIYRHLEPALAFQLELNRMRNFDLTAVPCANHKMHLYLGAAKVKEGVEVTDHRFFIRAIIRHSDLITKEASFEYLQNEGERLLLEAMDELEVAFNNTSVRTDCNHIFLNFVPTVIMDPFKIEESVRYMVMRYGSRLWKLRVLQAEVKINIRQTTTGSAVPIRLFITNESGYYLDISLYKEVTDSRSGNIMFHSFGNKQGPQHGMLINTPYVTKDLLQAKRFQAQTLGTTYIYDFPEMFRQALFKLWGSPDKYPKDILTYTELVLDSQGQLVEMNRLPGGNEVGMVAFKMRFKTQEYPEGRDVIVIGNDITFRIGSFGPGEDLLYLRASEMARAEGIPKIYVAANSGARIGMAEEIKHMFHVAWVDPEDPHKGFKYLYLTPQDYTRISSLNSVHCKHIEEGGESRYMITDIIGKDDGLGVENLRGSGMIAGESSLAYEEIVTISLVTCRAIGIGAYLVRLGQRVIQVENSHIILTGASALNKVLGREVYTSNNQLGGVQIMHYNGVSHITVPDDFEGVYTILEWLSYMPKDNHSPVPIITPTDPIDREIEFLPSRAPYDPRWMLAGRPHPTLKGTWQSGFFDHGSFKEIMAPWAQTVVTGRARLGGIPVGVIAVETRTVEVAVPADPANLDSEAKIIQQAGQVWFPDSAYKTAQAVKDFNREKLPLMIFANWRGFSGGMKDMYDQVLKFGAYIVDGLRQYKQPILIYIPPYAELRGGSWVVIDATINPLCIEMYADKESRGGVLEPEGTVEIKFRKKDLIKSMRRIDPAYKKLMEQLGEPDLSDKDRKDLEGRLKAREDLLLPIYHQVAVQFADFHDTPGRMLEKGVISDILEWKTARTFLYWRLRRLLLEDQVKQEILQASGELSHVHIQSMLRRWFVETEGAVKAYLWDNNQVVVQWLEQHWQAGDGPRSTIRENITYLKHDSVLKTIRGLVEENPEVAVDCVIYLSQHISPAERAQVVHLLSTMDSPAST

pIC50 [1] | pIC50 [2] | SMILES
6.21 | 5.71 | CC(C)(C)OC(=O)NC[C@H]1CC[C@H](CNC(=O)c2cc(-c3cnn(CCO)c3)nc3ccccc23)CC1 [Example 243, tert-Butyl [(trans-4-{[({2-[1-(2-hydroxyethyl)-1H-pyrazol-4-yl]quinolin-4-yl}carbonyl)amino]methyl}cyclohexyl)methyl]carbamate]
6.82 | 5.90 | CC(C)(C)OC(=O)NC[C@H]1CC[C@H](CNC(=O)c2cc(N3CCC(CCNCCF)CC3)nc3ccccc23)CC1 [Example 244]
6.74 | 5.85 | CN(CCF)CCC1CCN(c2cc(C(=O)NC[C@H]3CC[C@H](CNC(=O)OC(C)(C)C)CC3)c3ccccc3n2)CC1 [Example 245, tert-Butyl ({trans-4-[({[2-(4-(2-((2-fluoroethyl)(methyl)amino)ethyl}piperidin-1-yl)quinolin-4-yl]carbonyl}amino)methyl]cyclohexyl}methyl)carbamate]
